compound: O=C(/C=C/c1cccnc1)NCCCCC1CCN(C(=O)c2ccccc2)CC1 [Daporinad] + O=C(CCCCCCC(=O)Nc1ccccc1)NO [Vorinostat] (partner 1 µM); test: relative viability (nuclei count vs DMSO), 5 days (fraction); higher = more cells survive; details: first compound 0.001581 µM
Summary of the method: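 Each reported value is a median over duplicate plates. It expresses relative viability: treated-well nuclei count divided by vehicle-well nuclei count. Lung cancer cell lines in 1536-well plates were dosed by pin tool a day after seeding, alone with one drug or with a fixed anchor-drug dose plus five library-drug doses (not always all listed) in √10 steps, and nuclei were counted after 5 days.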

**Q.** ABC-1 was tested. Which relative viability did it give?
**A.** The relative viability was 1.51.

**Q.** NCI-H1944 was tested. Which relative viability did it give?
**A.** The relative viability was 0.524.

same assay, conditions: first compound 0.005 µM

**Q.** How did the relative viability turn out when NCI-H522 was run?
**A.** The relative viability was 0.946.

**Q.** With NCI-H2342 as the cell line, how does the relative viability read?
**A.** Its relative viability is 0.695.

**Q.** For NCI-H838, which relative viability is on record?
**A.** The relative viability was 0.49.

**Q.** With NCI-H1650 as the cell line, how does the relative viability read?
**A.** Its relative viability is 0.547.

**Q.** With NCI-H1993 as the cell line, how does the relative viability read?
**A.** The relative viability was 0.775.

**Q.** NCI-H441 was tested. Which relative viability did it give?
**A.** The relative viability was 0.811.

**Q.** Which relative viability does the source give for PC-14 here?
**A.** The relative viability was 0.898.

**Q.** For LCLC-103H, which relative viability is on record?
**A.** The relative viability was 0.864.

**Q.** Which relative viability does the source give for NCI-H596 here?
**A.** Its relative viability is 0.737.

**Q.** How did the relative viability turn out when NCI-H2126 was run?
**A.** Its relative viability is 0.948.

**Q.** Which relative viability does the source give for EMC-BAC-2 here?
**A.** Its relative viability is 0.421.

**Q.** NCI-H2085 was tested. Which relative viability did it give?
**A.** Its relative viability is 0.92.

**Q.** For HCC-366, which relative viability is on record?
**A.** Its relative viability is 0.389.

**Q.** With NCI-H1666 as the cell line, how does the relative viability read?
**A.** Its relative viability is 0.956.

**Q.** With NCI-H647 as the cell line, how does the relative viability read?
**A.** Its relative viability is 0.534.

**Q.** How did the relative viability turn out when LK-2 was run?
**A.** Its relative viability is 0.307.

**Q.** For NCI-H2087, which relative viability is on record?
**A.** Its relative viability is 0.576.

**Q.** NCI-H358 was tested. Which relative viability did it give?
**A.** The relative viability was 0.801.

**Q.** With NCI-H2170 as the cell line, how does the relative viability read?
**A.** Its relative viability is 0.827.

**Q.** H3255 was tested. Which relative viability did it give?
**A.** Its relative viability is 0.775.

**Q.** Which relative viability does the source give for COR-L23 here?
**A.** Its relative viability is 0.408.

**Q.** With COR-L 105 as the cell line, how does the relative viability read?
**A.** The relative viability was 0.861.

**Q.** How did the relative viability turn out when IA-LM was run?
**A.** The relative viability was 0.986.

**Q.** How did the relative viability turn out when LOU-NH91 was run?
**A.** The relative viability was 1.1.

**Q.** How did the relative viability turn out when ChaGo-K-1 was run?
**A.** The relative viability was 0.677.

**Q.** How did the relative viability turn out when NCI-H1793 was run?
**A.** Its relative viability is 0.809.

**Q.** With NCI-H2405 as the cell line, how does the relative viability read?
**A.** Its relative viability is 0.874.

**Q.** HOP-62 was tested. Which relative viability did it give?
**A.** Its relative viability is 0.618.

**Q.** Which relative viability does the source give for HCC-44 here?
**A.** Its relative viability is 1.19.

**Q.** SK-MES-1 was tested. Which relative viability did it give?
**A.** Its relative viability is 1.26.

**Q.** LU99A was tested. Which relative viability did it give?
**A.** Its relative viability is 0.545.

**Q.** For BEN, which relative viability is on record?
**A.** Its relative viability is 0.679.

**Q.** Which relative viability does the source give for HARA here?
**A.** Its relative viability is 0.518.

**Q.** How did the relative viability turn out when SW 900 was run?
**A.** Its relative viability is 0.86.

**Q.** With NCI-H727 as the cell line, how does the relative viability read?
**A.** Its relative viability is 1.45.

**Q.** With NCI-H1395 as the cell line, how does the relative viability read?
**A.** The relative viability was 0.94.

**Q.** NCI-H1648 was tested. Which relative viability did it give?
**A.** The relative viability was 0.424.

**Q.** With ABC-1 as the cell line, how does the relative viability read?
**A.** Its relative viability is 1.46.

**Q.** With NCI-H1944 as the cell line, how does the relative viability read?
**A.** The relative viability was 0.647.

same assay, conditions: first compound 0.01581 µM

**Q.** Which relative viability does the source give for NCI-H522 here?
**A.** Its relative viability is 0.544.

**Q.** NCI-H2342 was tested. Which relative viability did it give?
**A.** Its relative viability is 0.815.

**Q.** With NCI-H838 as the cell line, how does the relative viability read?
**A.** The relative viability was 0.418.

**Q.** How did the relative viability turn out when NCI-H1650 was run?
**A.** The relative viability was 0.322.

**Q.** How did the relative viability turn out when NCI-H1993 was run?
**A.** Its relative viability is 0.88.

**Q.** NCI-H441 was tested. Which relative viability did it give?
**A.** Its relative viability is 0.778.

**Q.** With PC-14 as the cell line, how does the relative viability read?
**A.** The relative viability was 0.472.

**Q.** With LCLC-103H as the cell line, how does the relative viability read?
**A.** Its relative viability is 0.999.

**Q.** Which relative viability does the source give for NCI-H596 here?
**A.** Its relative viability is 0.4.

**Q.** For NCI-H2126, which relative viability is on record?
**A.** The relative viability was 0.91.

**Q.** For EMC-BAC-2, which relative viability is on record?
**A.** The relative viability was 0.301.

**Q.** Which relative viability does the source give for NCI-H2085 here?
**A.** Its relative viability is 0.966.

**Q.** With HCC-366 as the cell line, how does the relative viability read?
**A.** The relative viability was 0.321.

**Q.** NCI-H1666 was tested. Which relative viability did it give?
**A.** Its relative viability is 1.07.

**Q.** For NCI-H647, which relative viability is on record?
**A.** Its relative viability is 0.49.

**Q.** Which relative viability does the source give for LK-2 here?
**A.** The relative viability was 0.256.

**Q.** Which relative viability does the source give for NCI-H2087 here?
**A.** Its relative viability is 0.792.

**Q.** For NCI-H358, which relative viability is on record?
**A.** Its relative viability is 0.558.

**Q.** How did the relative viability turn out when NCI-H2170 was run?
**A.** Its relative viability is 0.822.

**Q.** For H3255, which relative viability is on record?
**A.** The relative viability was 0.979.

**Q.** Which relative viability does the source give for COR-L23 here?
**A.** The relative viability was 0.161.

**Q.** How did the relative viability turn out when COR-L 105 was run?
**A.** The relative viability was 0.851.

**Q.** With IA-LM as the cell line, how does the relative viability read?
**A.** Its relative viability is 1.09.

**Q.** With LOU-NH91 as the cell line, how does the relative viability read?
**A.** Its relative viability is 1.02.

**Q.** With ChaGo-K-1 as the cell line, how does the relative viability read?
**A.** Its relative viability is 0.283.

**Q.** For NCI-H1793, which relative viability is on record?
**A.** The relative viability was 0.969.

**Q.** With NCI-H2405 as the cell line, how does the relative viability read?
**A.** The relative viability was 0.31.

**Q.** How did the relative viability turn out when HOP-62 was run?
**A.** Its relative viability is 0.414.

**Q.** For HCC-44, which relative viability is on record?
**A.** Its relative viability is 1.03.

**Q.** How did the relative viability turn out when SK-MES-1 was run?
**A.** Its relative viability is 1.01.

**Q.** LU99A was tested. Which relative viability did it give?
**A.** The relative viability was 0.571.

**Q.** Which relative viability does the source give for BEN here?
**A.** Its relative viability is 0.63.

**Q.** Which relative viability does the source give for HARA here?
**A.** Its relative viability is 0.663.

**Q.** How did the relative viability turn out when SW 900 was run?
**A.** Its relative viability is 0.3.

**Q.** NCI-H727 was tested. Which relative viability did it give?
**A.** Its relative viability is 1.03.

**Q.** NCI-H1395 was tested. Which relative viability did it give?
**A.** The relative viability was 0.794.

**Q.** For NCI-H1648, which relative viability is on record?
**A.** Its relative viability is 0.41.

**Q.** With ABC-1 as the cell line, how does the relative viability read?
**A.** Its relative viability is 0.9.

**Q.** How did the relative viability turn out when NCI-H1944 was run?
**A.** The relative viability was 0.613.
